# Experimental data as given in patent US20090004185A1, “AMINO-SUBSTITUTED QUINAZOLINE DERIVATIVES AS INHIBITORS OF BETA-CATENIN/TCF-4 PATHWAY AND CANCER TREATMENT AGENTS” (WYETH, priority 2007, published 2009).
# What was measured:
# [1] = tested on: β-catenin/Tcf-4; assay: cells; type: cell-based; settings: Homo sapiens, 24 hours of incubation with compound, ratio Firefly/Renilla luciferase
# Outline: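 SW480-derived lines with integrated reporters (Tcf-4-driven firefly luciferase; SV40 firefly as specificity control; SV40 Renilla for cell number/toxicity), treated 24 hours with titrated compounds, final 0.316% DMSO. Dual-luciferase read-out; firefly/Renilla ratio as % of control, duplicate plates, IC50 (nM) from curve fit.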
# [2] = tested on: SV40-Luc; assay: SV40-Luc control luciferase reporter assay, SV 5A8 cell line (SV40-Luc and SV40-R-Luc), control for non-specific inhibitors; type: cell-based, human; settings: Homo sapiens, SV5A8, 24 h, SV 5A8 cells derived from SW480; 24 hours of incubation with compound; ratio Firefly/Renilla luciferase
# Outline: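 Read-out is the firefly-to-Renilla luminescence ratio, expressed as % of control and averaged over duplicate plates, from which IC50s were fitted. Renilla under SV40 normalises for cell number and toxicity. SW480-derived lines carried integrated Tcf-4- or SV40-driven firefly reporters; compound exposure lasted 24 h.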
# [3] = SW480, 24 h, Tcf 33.13 cells derived from SW480
# [4] = Tcf22C11, 24 h, Tcf 22C11 cells derived from SW480
Structure (SMILES),"IC50 [1, 3] [nM]","IC50 [1, 4] [nM]",IC50 [2] [nM],melting point [°C]
"C/C=C/c1ccc2c(NCc3ccc(NC(=O)C4CCN(Cc5ccccc5)CC4)cc3)nc(N(C)C)nc2c1 [Example 151, 1-benzyl-N-{4-[({2-(dimethylamino)-7-[(1E)-prop-1-en-1-yl]quinazolin-4-yl}amino)methyl]phenyl}-piperidine-4-carboxamide]",726,606,> 2530,154
"CNc1nc(NCc2ccc(NC(=O)c3ccc(Cl)nc3)cc2)c2cc([N+](=O)[O-])ccc2n1 [Example 184, 6-chloro-N-[4-({[2-(methylamino)-6-nitroquinazolin-4-yl]amino}methyl)phenyl]nicotinamide]",> 21600,> 21600,> 21600,305 to 307
"Cc1ccc2c(NCc3ccc(NC(=O)c4ccc(Cl)cc4)cc3)nc(N3CCCCCC3)nc2c1 [Example 198, N-(4-{[(2-azepan-1-yl-7-methylquinazolin-4-yl)amino]methyl}phenyl)-4-chlorobenzamide]",253,346,> 2500,192 to 194
"Cc1ccc2c(NCc3ccc(NC(=O)c4ccc(F)cc4)cc3)nc(NCCc3ccccn3)nc2c1 [Example 232, 4-fluoro-N-{4-[({7-methyl-2-[(2-pyridin-2-ylethyl)amino]quinazolin-4-yl}amino)methyl]phenyl}benzamide]",292,408,> 2470,112 to 115
"Cc1ccc2c(NCc3ccc(NC(=O)c4ccc(F)cc4)cc3)nc(NC3CCN(Cc4ccccc4)CC3)nc2c1 [Example 233, N-{4-[({2-[(1-benzylpiperidin-4-yl)amino]-7-methylquinazolin-4-yl}amino)methyl]phenyl}-4-fluorobenzamide]",> 2180,> 4350,> 4350,135 to 138

# The remaining lines, values ahead:
"IC50 [1, 3] [nM]","IC50 [1, 4] [nM]",IC50 [2] [nM],melting point [°C],Structure (SMILES)
448,451,> 5170,135 to 139,"Cc1ccc2c(NCc3ccc(NC(=O)c4ccc(F)cc4)cc3)nc(N3CCCCCC3)nc2c1 [Example 235, N-(4-{[(2-azepan-1-yl-7-methylquinazolin-4-yl)amino]methyl}phenyl)-4-fluorobenzamide]"
255,284,> 1310,295 to 298,"CNc1nc(NCc2ccc(NC(=O)c3ccc(Br)cc3)cc2)c2ccc(C)cc2n1 [Example 238, 4-bromo-N-[4-({[7-methyl-2-(methylamino)quinazolin-4-yl]amino}methyl)phenyl]benzamide]"
793,900,> 3030,257 to 259,"CNc1nc(NCc2ccc(NC(=O)c3ccc(C)nc3)cc2)c2ccc(C)cc2n1 [Example 240, 6-methyl-N-[4-({[7-methyl-2-(methylamino)quinazolin-4-yl]amino}methyl)phenyl]nicotinamide]"
106,196,> 2300,97 to 99,"Cc1ccc2c(NCc3ccc(NC(=O)C4CCN(Cc5ccc(F)c(F)c5)CC4)cc3)nc(N(C)C)nc2c1 [Example 255, 1-(3,4-difluorobenzyl)-N-[4-({[2-(dimethylamino)-7-methylquinazolin-4-yl]amino}methyl)phenyl]piperidine-4-carboxamide]"
706,967,> 8670,126 to 128,"Cc1ccc2c(NCc3ccc(NC(=O)C4CCN(Cc5ccc(C(F)(F)F)cc5)CC4)cc3)nc(N(C)C)nc2c1 [Example 256, N-[4-({[2-(dimethylamino)-7-methylquinazolin-4-yl]amino}methyl)phenyl]-1-[4-(trifluoromethyl)benzyl]piperidine-4-carboxamide]"
